How the values were obtained:
DLD1-WRN-KO cells = assay: Proliferation assay DLD1-WRN-KO (CellTiterGlo, 96 hours), off-target effects; format: cell-based; conditions: Homo sapiens
Summary of the method: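 Cells in RPMI-1640/10% FCS were seeded overnight (SW48 2'000, DLD1-WRN-KO 1'500 cells/well), then exposed to eight 3-fold compound dilutions at 0.1% DMSO. ATP luminescence relative to a day-0 plate gives % growth (0% stasis, −100% complete kill). GI50 is the geometric mean of ≥2 independent replicates.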

[1] = Storage stability of the solid at RT; format: physicochemical; conditions: stored at RT under ambient atmosphere for several months; degradation product Example 25
Text: 2.60 g (3.51 mmol) of Example 21A (7R,9R)—N-(2-chloro-4-(trifluoromethyl)phenyl)-2-(3,6-dihydro-2H-pyran-4-yl)-6-((1S,6S)-5-(5-hydroxy-6-methylpyrimidine-4-carbonyl)-2,5-diazabicyclo[4.2.0]octan-2-yl)-7-methyl-5-oxo-5,7,8,9-tetrahydropyrrolo[1,2-c][1,2,4]triazolo[1,5-a]pyrimidine-9-carboxamide was stored at RT under ambient atmosphere for several months, by which the purity decreased to 86%. The degradation product title compound Example 25 was isolated by column chromatography (RediSep Column: Silica 80 g, eluent DCM:MeOH 100:0 to 90:10). The product containing fractions were combined and concentrated under reduced pressure to give a yellow foam. This foam was further purified by chiral SFC (instrument: Waters Prep SFC100-MS; column: Chiralpak IB-N 250 mm×30 mm 5 μm; eluent: A: 55% MeOH+0.1% NH3, B: 45% scCO2; flow rate: 78.0 mL/min; detection: DAD; injection volume: 1.1 mL; gradient: isocratic A: 55%, B: 45%).

Row | Compound | GI50 (DLD1-WRN-KO cells) [µM] | purity after storage [1] [%]
1 | Cc1ncnc(C(=O)N2CCN(c3c4n(c5nc(C6=CCOCC6)nn5c3=O)[C@@H](C(=O)Nc3ccc(C(F)(F)F)cc3Cl)C[C@H]4C)C[C@H]2C)c1O [Example 18A, (7R,9R)—N-(2-chloro-4-(trifluoromethyl)phenyl)-2-(3,6-dihydro-2H-pyran-4-yl)-6-((R)-4-(5-hydroxy-6-methylpyrimidine-4-carbonyl)-3-methylpiperazin-1-yl)-7-methyl-5-oxo-5,7,8,9-tetrahydropyrrolo[1,2-c][1,2,4]triazolo[1,5-a]pyrimidine-9-carboxamide] | > 50 | 
2 | Cc1ncnc(C(=O)N2CCN(c3c4n(c5nc(C6=CCOCC6)nn5c3=O)[C@@H](C(=O)Nc3ccc(C(F)(F)F)cc3Cl)C[C@H]4C)[C@H]3CC[C@@H]32)c1O [Example 21A, (7R,9R)—N-(2-chloro-4-(trifluoromethyl)phenyl)-2-(3,6-dihydro-2H-pyran-4-yl)-6-((1S,6S)-5-(5-hydroxy-6-methylpyrimidine-4-carbonyl)-2,5-diazabicyclo[4.2.0]octan-2-yl)-7-methyl-5-oxo-5,7,8,9-tetrahydropyrrolo[1,2-c][1,2,4]triazolo[1,5-a]pyrimidine-9-carboxamide] | > 50 | 86

Reference: patent publication US20240245694A1, “Tricyclic Compounds and their Uses” (Novartis AG, priority 2022, published 2024)
